Assay results taken from US11225605B2, “Polymerizable liquid crystal compound, method for producing polymerizable liquid crystal compound, polymerizable liquid crystal composition, optically anisotropic film, optical film, polarizing plate, and image display device” (FUJIFILM Corporation, priority 2017, dated 2022).

Columns and labels:
[1] = Solubility in methyl ethyl ketone (MEK) and cyclopentanone (CPN); type: physicochemical; conditions: for Solubility Evaluation: MEK or CPN; for Solubility CPO: cyclopentanone; for Solubility CPO / Solubility MEK: shaken at 50° C., left at room temperature (23° C.) for 10 minutes; for Solubility MEK: methyl ethyl ketone
Method: Specifically, 50 mg of the compound was weighed into a 1.5-mL sample bottle, and a solvent was added thereto until the solid content became 40% by weight (75 mg).
The mixture was thoroughly shaken by the hand at 50° C. and left to stand at room temperature (23° C.) for 10 minutes. Then, this operation was stopped in a case where the mixture was clear upon visual observation, and it was determined that the solubility was 40% by weight. A solvent was added so that the solid content became 35% by weight in a case where there were undissolved residues (+18 mg). The mixture was thoroughly shaken by the hand at 50° C. and left to stand at room temperature (23° C.) for 10 minutes. […] A solvent was added so that the solid content became 30% by weight in a case where there were undissolved residues. The same operation was performed in 5%-by-weight steps and repeated up to 5% by weight. In a case where there were undissolved residues, it was determined that the solubility was less than 5% by weight (<5% by weight), and the operation was stopped. Methyl ethyl ketone (MEK) and cyclopentanone (CPN) were used as solvents for solubility measurement.

[2] = Durability of optically anisotropic film at high temperature and high humidity; type: physicochemical; conditions: for Durability 100° C. Relatibe 144 hours: film left 144 hours at relative humidity 95%, variation in Re (550); for Durability of optically anisotropic film: result in words
Method: With regard to a test condition for durability, a test in which the film was left to stand for 144 hours in an environment of a relative humidity of 95% at 100° C. was performed as described in Table 6 below.

Row | SMILES | Solubility CPO [1] | Solubility MEK [1] | Durability of optically anisotropic film [2] | Solubility Evaluation [1] | Durability 100° C. Relatibe 144 hours [2]
1 | C=CC(=O)OCCOC(=O)CCC(=O)OCCc1ccc(OC(=O)C2CCC(C(=O)Oc3cc(C(C)(C)C)c(OC(=O)C4CCC(C(=O)Oc5ccc(CCOC(=O)CCC(=O)OCCOC(=O)C=C)cc5)CC4)c4c3SC(=C(C#N)C#N)S4)CC2)cc1 [Compound D-1] | 40 % by weight | 40 % by weight | deteriorate | A (A solubility in any one of MEK or CPN is 30% or more.) | C (A variation in Re (550) after the test with respect to the initial retardation value is 30% or more.)
2 | C=CC(=O)OCC(C)(C)COC(=O)CCC(=O)OCCc1ccc(OC(=O)C2CCC(C(=O)Oc3ccc(OC(=O)C4CCC(C5CCC(CC)CC5)CC4)c4c3SC(=C(C#N)C#N)S4)CC2)cc1 (centres unmarked) [Compound A-1] | 10 % by weight | 1 % by weight | deteriorated | C (A solubility in any one of MEK or CPN is less than 15%.) | C (A variation in Re (550) after the test with respect to the initial retardation value is 30% or more.)
3 | C=CC(=O)OCC(C)(C)COC(=O)CCC(=O)OCCc1ccc(OC(=O)C2CCC(C(=O)Oc3cc(C(C)(C)C)c(OC(=O)C4CCC(C(=O)Oc5ccc(CCOC(=O)CCC(=O)OCC(C)(C)COC(=O)C=C)cc5)CC4)c4c3SC(=C(C#N)C#N)S4)CC2)cc1 (centres unmarked) [Compound C-1] | 40 % by weight | 40 % by weight |  | A (A solubility in any one of MEK or CPN is 30% or more.) | 
4 | C=CC(=O)OCCCCCCOc1ccc(OC(=O)C2CCC(C(=O)Oc3cc(C(C)(C)C)c(OC(=O)C4CCC(C(=O)Oc5ccc(OCCCCCCOC(=O)C=C)cc5)CC4)c4c3SC(=C(C#N)C#N)S4)CC2)cc1 (centres unmarked) [Compound E-1] | 10 % by weight | 8 % by weight | deteriorate | C (A solubility in any one of MEK or CPN is less than 15%.) | C (A variation in Re (550) after the test with respect to the initial retardation value is 30% or more.)
5 | C=CC(=O)OCC(C)(C)COC(=O)CCC(=O)OCCc1ccc(OC(=O)C2CCC(C(=O)Oc3c(C)cc(OC(=O)C4CCC(C5CCC(CC)CC5)CC4)c4c3SC(=C(C#N)C#N)S4)CC2)cc1 (centres unmarked) [Compound B-1] | 15 % by weight | 5 % by weight | deteriorated | B (A solubility in any one of MEK or CPN is 15% or more and less than 30%.) | C (A variation in Re (550) after the test with respect to the initial retardation value is 30% or more.)

The next lines start with results.

Row | Solubility CPO [1] | Solubility MEK [1] | Durability of optically anisotropic film [2] | SMILES | Solubility Evaluation [1] | Durability 100° C. Relatibe 144 hours [2]
6 | 20 % by weight | 10 % by weight |  | C=CC(=O)OCCCCCCOc1ccc(OC(=O)C2CCC(C(=O)Oc3c(C(C)(C)C)cc(OC(=O)C4CCC(C5CCC(CC)CC5)CC4)c4c3SC(=C(C#N)C#N)S4)CC2)cc1 (centres unmarked) [Compound I-3] | B (A solubility in any one of MEK or CPN is 15% or more and less than 30%.) | A (A variation in Re (550) after the test with respect to the initial retardation value is less than 15% of the initial value.)
7 | 1 % by weight | <1 % by weight |  | CCC1CCC(C2CCC(C(=O)Oc3cc(C(C)(C)C)c(OC(=O)C4CCC(C5CCC(CC)CC5)CC4)c4c3SC(=C(C#N)C#N)S4)CC2)CC1 (centres unmarked) [Compound I-1f] | C (A solubility in any one of MEK or CPN is less than 15%.) | 
8 | 15 % by weight | 5 % by weight |  | C=CC(=O)OCC(C)(C)COC(=O)CCC(=O)OCCc1ccc(OC(=O)C2CCC(C(=O)Oc3cc(C(C)(C)C)c(OC(=O)C4CCC(C5CCC(CC)CC5)CC4)c4c3SC(=C(C#N)C#N)S4)CC2)cc1 (centres unmarked) [Compound I-13] | B (A solubility in any one of MEK or CPN is 15% or more and less than 30%.) | B (A variation in Re (550) after the test with respect to the initial retardation value is 15% or more and less than 30% of the initial value.)
9 | 30 % by weight | 35 % by weight |  | C=CC(=O)OCCOC(=O)CCC(=O)OCCc1ccc(OC(=O)C2CCC(C(=O)Oc3c(C(C)(C)C)cc(OC(=O)C4CCC(C5CCC(CC)CC5)CC4)c4c3SC(=C(C#N)C#N)S4)CC2)cc1 (centres unmarked) [Compound I-2] | A (A solubility in any one of MEK or CPN is 30% or more.) | A (A variation in Re (550) after the test with respect to the initial retardation value is less than 15% of the initial value.)
